From patent publication US20060045906A1, “Compositions and methods for activating protein synthesis and deactivating catabolic processes in skeletal muscle” (priority 2004, published 2006)
Several values for one entry are separate records, joined by “and”; a condition that tells them apart may be missing. Equal values may be shown once.

Legend:
[1] = test system: skeletal muscle total creatine; details: cited from earlier work
[2] = test system: serum insulin; experiment: Serum insulin concentration and area under the concentration time curve after oral challenge (nasogastric) in healthy male volunteers; type: in vivo, human
Description: (§1) Measurement of creatine levels in the plasma preferably involves removing venous blood from the dorsal surface of a heated hand immediately before and 20, 40, and 60 min after the ingestion of a supplement. In addition, urine may be collected before and on the day of ingestion of a supplement. Plasma and urine creatine may be measured using high performance liquid chromatography and serum insulin was measured using a radioimmunoassay technique, an example of which is described in U.S. Pat. No. 5,968,900, which is fully incorporated herein by reference.
Aim: The aim of this study was to identify a supplement that would optimize the augmentation of Cr retention after its supplementation, by increasing the insulinotropic effect, whilst consuming a lower carbohydrate load.
Study design: Randomized, double-blind, placebo controlled, cross-over design.
Volunteers: 7 healthy male volunteers. All volunteers were eligible to participate after satisfactory results from the medical screening.
(§2) Protocol: The volunteers were required to attend to the lab for 3 trials. Each consisted of an afternoon arm, and a morning arm. Each arm lasted for approximately 4 hours. The volunteers were asked to relax on a bed. A baseline blood sample was taken. Each solution was administered via a nasogastric tube (mean time of administration was approximately 7 minutes). Half-way through the administration, the stop clock was started. After the three hour protocol, a second solution was administered. The third solution was administered in the following morning arm of the trial. Each trial was separated by at least 12 days.
(§3) Each solution was administered via a nasogastric tube three times over 24 hours. A total amount of 15 g or Cr was administered.
Blood sampling: Blood samples were collected for three hours after administration of the solution. Eleven blood samples obtained (including baseline sample). For the first hour after administration of the solution, a blood sample was obtained at 15 minute intervals. During the second and third hour of sampling, the intervals were increased to 20 minutes. Approximately 3 ml of blood was transferred to a lithium heparin containing tube and a further 3 ml were allowed to clot for plasma Cr and creatinine (Crn), and serum insulin analysis respectively.
Statistical analysis: A two-way repeated measure ANOVA statistical test was used. Significance was set at p<0.05. When a significant difference was observed, Fisher's post hoc analysis was performed in order to locate the difference. All individual results are included in the appendix.

[3] = human, in vivo
Description: as §1, §2, §3
Blood sampling: Blood samples were collected for three hours after administration of the solution. […]

[4] = Urinary creatine excretion (24 h collections: 0-24, 24-48, 0-48 h) after administration of the solutions; type: in vivo, human; details: p<0.05
Description: as §1
Urinary Creatine Content:
Three 24 h hour urinary collections were obtained from each volunteer for each arm of the study. The first collection (baseline) was completed prior to administration of the solution. The second collection (0-24 h) was initiated immediately after the administration of the first solution, until 24 h post administration. […] The volume of the urine excreted was recorded and a 5 ml sample was frozen at −20° C. until analysis. The samples were analyzed for Cr and Crn.
To calculate the total creatine (TCr) the Cr and Crn were added together. The TCr increase was calculated by subtracting the baseline TCr from the 0-24 h excretion and/or the 24-48 h excretion. The 0-48 h content was calculated by adding the 0-24 h TCr with the 24-48 h TCr increase in excretion. […]

In the case of `CN(CC(=O)O)C(=N)N` [creatine, N-methyl-N-guanyl glycine], the “increase of muscle total creatine content, on average” value ([1]; 20 g/day for 5 days) is listed as 20% and the “increase in human skeletal muscle total creatine (phosphocreatine and free creatine) stores” value ([1]; dietary creatine supplementation) is listed as 20-50%.

For `CN(CC(=O)O)C(=N)N` [C, creatine], the “serum insulin concentration compared to PAC” value ([2]; FIG. 1, first oral challenge, from 15-140 min) was “significantly lower”, the “serum insulin concentration compared to CHO” value ([2]; FIG. 1, first oral challenge, from 15-160 min) was “significantly lower” and the “serum insulin concentration compared to CHO and PAC” value ([2]; FIG. 2, third oral challenge, from 15-160 min) was “significantly lower”. The “serum insulin AUC compared to CHO and PAC” value ([2]; FIG. 3, 80 min following the first oral challenge, p=0.02) was “significantly lower”, the “serum insulin AUC compared to CHO and PAC” value ([2]; FIG. 4, 180 min following the first oral challenge, p=0.015) was “significantly lower” and the “serum insulin AUC compared to CHO and PAC” value ([2]; FIG. 5, 80 min following the third oral challenge, p<0.001) was “significantly lower”. For the same molecule, the “serum insulin AUC compared to CHO and PAC” value ([2]; FIG. 6, 180 min following the first oral challenge (so in the source), p<0.001) was “significantly lower”, the “insulin area under the time curve response” value (from here on “insulin area”) ([2]; first oral challenge, 0-80 min (as headed), individual subject) was −235 mU/l/min and −127 mU/l/min and −112 mU/l/min and −166 mU/l/min and −146 mU/l/min and −714 mU/l/min and −566 mU/l/min and the “insulin area” value ([2]; first oral challenge, 0-80 min (as headed), mean of 7 subjects) was −295 mU/l/min. The “insulin area” value ([2]; first oral challenge, 0-180 min (as headed), individual subject) was −32 mU/l/min and −48 mU/l/min and −50 mU/l/min and 21 mU/l/min and −11 mU/l/min and −299 mU/l/min and −186 mU/l/min, the “insulin area” value ([2]; first oral challenge, 0-180 min (as headed), mean of 7 subjects) was −86 mU/l/min and the serum insulin concentration ([2]; first oral challenge, 45 min, individual subject) was 9.02 mU/l and 7.85 mU/l and 9.58 mU/l and 10.16 mU/l and 9.61 mU/l and 9.34 mU/l and 11.85 mU/l. The serum insulin concentration ([2]; first oral challenge, 45 min, mean of 7 subjects) was 9.63 mU/l, the serum insulin concentration ([2]; first oral challenge, 60 min, individual subject) was 9.17 mU/l and 7.54 mU/l and 9.74 mU/l and 8.51 mU/l and the “insulin area” value ([2]; third oral challenge, 0-80 min, individual subject) was 10 mU/l/min (2×) and −7 mU/l/min and −23 mU/l/min and 132 mU/l/min and −34 mU/l/min and −18 mU/l/min. For the same molecule, the “insulin area” value ([2]; third oral challenge, 0-80 min, mean of 7 subjects) was 10 mU/l/min, the “insulin area” value ([2]; third oral challenge, 0-180 min, individual subject) was 274 mU/l/min (2×) and −63 mU/l/min and −109 mU/l/min and 195 mU/l/min and 1406 mU/l/min and −99 mU/l/min and the “insulin area” value ([2]; third oral challenge, 0-180 min, mean of 7 subjects) was 268 mU/l/min. For the same molecule, the serum insulin concentration ([2]; third oral challenge, 0 min, individual subject) was 8.91 mU/l (2×) and 8.31 mU/l and 10.38 mU/l and 9.64 mU/l and 10.31 mU/l and 8.65 mU/l, the serum insulin concentration ([2]; third oral challenge, 0 min, mean of 7 subjects) was 9.30 mU/l and the serum insulin concentration ([2]; third oral challenge, 15 min, individual subject) was 8.94 mU/l (2×) and 7.78 mU/l and 10.23 mU/l and 9.84 mU/l and 10.29 mU/l and 11.08 mU/l. For the same molecule, the serum insulin concentration ([2]; third oral challenge, 15 min, mean of 7 subjects) was 9.59 mU/l, the serum insulin concentration ([2]; third oral challenge, 30 min, individual subject) was 9.44 mU/l (2×) and 7.90 mU/l and 10.92 mU/l and 10.89 mU/l and 9.80 mU/l and 11.61 mU/l and the serum insulin concentration ([2]; third oral challenge, 30 min, mean of 7 subjects) was 10.00 mU/l. The serum insulin concentration ([2]; third oral challenge, 45 min, individual subject) was 8.87 mU/l (2×) and 7.24 mU/l and 9.56 mU/l and 9.07 mU/l and 10.07 mU/l and 9.32 mU/l, the serum insulin concentration ([2]; third oral challenge, 45 min, mean of 7 subjects) was 9.00 mU/l and the serum insulin concentration ([2]; third oral challenge, 60 min, individual subject) was 8.92 mU/l (2×) and 7.99 mU/l and 10.03 mU/l and 8.61 mU/l and 9.69 mU/l and 10.81 mU/l. For the same molecule, the serum insulin concentration ([2]; third oral challenge, 60 min, mean of 7 subjects) was 9.28 mU/l, the serum insulin concentration ([2]; third oral challenge, 80 min, individual subject) was 9.06 mU/l (2×) and 8.54 mU/l and 9.79 mU/l and 9.45 mU/l and 10.22 mU/l and 8.93 mU/l and the serum insulin concentration ([2]; third oral challenge, 80 min, mean of 7 subjects) was 9.29 mU/l. For the same molecule, the serum insulin concentration ([2]; third oral challenge, 100 min, individual subject) was 8.54 mU/l (2×) and 8.56 mU/l and 9.59 mU/l (2×) and 9.34 mU/l and 9.38 mU/l, the serum insulin concentration ([2]; third oral challenge, 100 min, mean of 7 subjects) was 9.08 mU/l and the serum insulin concentration ([2]; third oral challenge, 120 min, individual subject) was 8.76 mU/l (2×) and 8.20 mU/l and 10.07 mU/l and 8.48 mU/l and 10.27 mU/l and 9.10 mU/l. For the same molecule, the serum insulin concentration ([2]; third oral challenge, 120 min, mean of 7 subjects) was 9.09 mU/l, the serum insulin concentration ([2]; third oral challenge, 140 min, individual subject) was 8.29 mU/l (2×) and 8.44 mU/l and 8.57 mU/l and 8.55 mU/l and 8.56 mU/l and 9.20 mU/l and the serum insulin concentration ([2]; third oral challenge, 140 min, mean of 7 subjects) was 8.56 mU/l. For the same molecule, the serum insulin concentration ([2]; third oral challenge, 160 min, individual subject) was 8.69 mU/l (2×) and 8.34 mU/l and 8.66 mU/l and 10.01 mU/l and 9.02 mU/l and 9.73 mU/l, the serum insulin concentration ([2]; third oral challenge, 160 min, mean of 7 subjects) was 9.02 mU/l and the serum insulin concentration ([2]; third oral challenge, 180 min, individual subject) was 8.58 mU/l (3×) and 8.61 mU/l and 8.56 mU/l and 9.43 mU/l and 9.04 mU/l. For the same molecule, the serum insulin concentration ([2]; third oral challenge, 180 min, mean of 7 subjects) was 8.77 mU/l, the “plasma creatine AUC compared to CHO and PAC” value [3] was “significantly greater” and the “urinary creatine content compared to CHO and PAC” value ([4]; FIG. 11, 0-24 h) was “significantly greater”. For the same molecule, the “urinary creatine content compared to CHO and PAC” value ([4]; FIG. 13, 0-48 h following supplementation) was “significantly greater”.

In the case of `CN(CC(=O)O)C(=N)N` [carbohydrate free creatine, creatine], the “increase of total muscle creatine” value ([1]; 5 g creatine four times a day for 5 days) is listed as “about 20 mmol/kg dm”.
